This note sets out measurements from US20100267697A1, “ION CHANNEL MODULATORS” (Wyeth, priority 2006, published 2010).

This assay deals with T1, Cav2.2 (Homo sapiens, UniProt Q00975).
T1 construct: expressed in transfected cells; host or cells: HEK-293T/17 (transient, FuGENE 6)
As to the kind of experiment: HEK assay (whole-cell patch clamp, transiently transfected HEK-293T/17 cells, pulses P1 and P5). In kind it is cell-based. To be noted: holding potential −100 mV. As for the experimental part:
HEK-293T/17 cells were transiently transfected in a similar manner as described in FuGENE 6 Package Insert Version 7, April 2002, Roche Applied Science, Indianapolis, Ind. The cells were plated at 2.5×10^5 cells in 2 mL in a 6-well plate, incubated for one night, and achieved a ˜30-40% confluence. In a small sterile tube, sufficient serum-free medium was added as diluent for FuGENE Transfection Reagent (Roche Applied Science, Indianapolis, Ind.) to a total volume of 100 μL. To this medium was added 3 μL of FuGENE 6 Reagent. The mixture was tapped gently to mix. To the prediluted FuGENE 6 Reagent was added 2 μg of DNA solution (0.8-2.0 μg/μL). The DNA/Fugene 6 mixture was gently pipeted to mix the contents and incubated for about 15 minutes at room temperature. The complex mixture was then added to the HEK-293T/17 cells, distributed around the well, and swirled to ensure even dispersal. The cells were returned to the incubator for 24 hours. The transfected cells were then replated at density 2.5×10^5 in a 35 mm dish with 5 glass coverslips and grew in low serum (1%) media for 24 hours. Coverslips with isolated cells were then transferred into a chamber, and calcium channel (e.g., L-type, N-type, etc.) current or other currents for counter screening were recorded from the transiently transfected HEK-293T/17 cells.
The whole-cell voltage clamp configuration of the patch clamp technique was employed to evaluate voltage-dependent calcium currents essentially as described by Thompson and Wong (1991), J. Physiol., 439: 671-689, the entire disclosure of which is herein incorporated by reference. To record calcium channel (e.g., L-type, N-type, etc.) currents for evaluation of inhibitory potency of compounds (steady-state concentration-response analysis), five pulses of 20-30 ms voltage steps to about +10 mV (the peak of the current voltage relationship) were delivered at five Hz every 30 second from a holding potential at −100 mV. In order to obtain an estimate of the degree of use-dependent block of the test compounds, IC50 values were determined at the first and fifth pulse of the train (P1 and P5, respectively, in Table 2). Compound evaluations were carried out essentially as described by Sah D. W. and Bean B. P. (1994), Mol. Pharmacol., 45:84-92, the entire disclosure of which is herein incorporated by reference.
Background: The patch-clamp technique gives a direct electrical read-out from membranes.

[1] abbreviates: fifth pulse (P5) of 5 Hz train, read-out: HEK Cav2.2 P5 IC50.
Setting [2] is: first pulse (P1) of 5 Hz train, read-out: HEK Cav2.2 P1 IC50.

Structures can show the parent of a compound that is named as a salt. Where two headings read alike, the source gives them in different places.

T1 sequence (Q00975 whole entry): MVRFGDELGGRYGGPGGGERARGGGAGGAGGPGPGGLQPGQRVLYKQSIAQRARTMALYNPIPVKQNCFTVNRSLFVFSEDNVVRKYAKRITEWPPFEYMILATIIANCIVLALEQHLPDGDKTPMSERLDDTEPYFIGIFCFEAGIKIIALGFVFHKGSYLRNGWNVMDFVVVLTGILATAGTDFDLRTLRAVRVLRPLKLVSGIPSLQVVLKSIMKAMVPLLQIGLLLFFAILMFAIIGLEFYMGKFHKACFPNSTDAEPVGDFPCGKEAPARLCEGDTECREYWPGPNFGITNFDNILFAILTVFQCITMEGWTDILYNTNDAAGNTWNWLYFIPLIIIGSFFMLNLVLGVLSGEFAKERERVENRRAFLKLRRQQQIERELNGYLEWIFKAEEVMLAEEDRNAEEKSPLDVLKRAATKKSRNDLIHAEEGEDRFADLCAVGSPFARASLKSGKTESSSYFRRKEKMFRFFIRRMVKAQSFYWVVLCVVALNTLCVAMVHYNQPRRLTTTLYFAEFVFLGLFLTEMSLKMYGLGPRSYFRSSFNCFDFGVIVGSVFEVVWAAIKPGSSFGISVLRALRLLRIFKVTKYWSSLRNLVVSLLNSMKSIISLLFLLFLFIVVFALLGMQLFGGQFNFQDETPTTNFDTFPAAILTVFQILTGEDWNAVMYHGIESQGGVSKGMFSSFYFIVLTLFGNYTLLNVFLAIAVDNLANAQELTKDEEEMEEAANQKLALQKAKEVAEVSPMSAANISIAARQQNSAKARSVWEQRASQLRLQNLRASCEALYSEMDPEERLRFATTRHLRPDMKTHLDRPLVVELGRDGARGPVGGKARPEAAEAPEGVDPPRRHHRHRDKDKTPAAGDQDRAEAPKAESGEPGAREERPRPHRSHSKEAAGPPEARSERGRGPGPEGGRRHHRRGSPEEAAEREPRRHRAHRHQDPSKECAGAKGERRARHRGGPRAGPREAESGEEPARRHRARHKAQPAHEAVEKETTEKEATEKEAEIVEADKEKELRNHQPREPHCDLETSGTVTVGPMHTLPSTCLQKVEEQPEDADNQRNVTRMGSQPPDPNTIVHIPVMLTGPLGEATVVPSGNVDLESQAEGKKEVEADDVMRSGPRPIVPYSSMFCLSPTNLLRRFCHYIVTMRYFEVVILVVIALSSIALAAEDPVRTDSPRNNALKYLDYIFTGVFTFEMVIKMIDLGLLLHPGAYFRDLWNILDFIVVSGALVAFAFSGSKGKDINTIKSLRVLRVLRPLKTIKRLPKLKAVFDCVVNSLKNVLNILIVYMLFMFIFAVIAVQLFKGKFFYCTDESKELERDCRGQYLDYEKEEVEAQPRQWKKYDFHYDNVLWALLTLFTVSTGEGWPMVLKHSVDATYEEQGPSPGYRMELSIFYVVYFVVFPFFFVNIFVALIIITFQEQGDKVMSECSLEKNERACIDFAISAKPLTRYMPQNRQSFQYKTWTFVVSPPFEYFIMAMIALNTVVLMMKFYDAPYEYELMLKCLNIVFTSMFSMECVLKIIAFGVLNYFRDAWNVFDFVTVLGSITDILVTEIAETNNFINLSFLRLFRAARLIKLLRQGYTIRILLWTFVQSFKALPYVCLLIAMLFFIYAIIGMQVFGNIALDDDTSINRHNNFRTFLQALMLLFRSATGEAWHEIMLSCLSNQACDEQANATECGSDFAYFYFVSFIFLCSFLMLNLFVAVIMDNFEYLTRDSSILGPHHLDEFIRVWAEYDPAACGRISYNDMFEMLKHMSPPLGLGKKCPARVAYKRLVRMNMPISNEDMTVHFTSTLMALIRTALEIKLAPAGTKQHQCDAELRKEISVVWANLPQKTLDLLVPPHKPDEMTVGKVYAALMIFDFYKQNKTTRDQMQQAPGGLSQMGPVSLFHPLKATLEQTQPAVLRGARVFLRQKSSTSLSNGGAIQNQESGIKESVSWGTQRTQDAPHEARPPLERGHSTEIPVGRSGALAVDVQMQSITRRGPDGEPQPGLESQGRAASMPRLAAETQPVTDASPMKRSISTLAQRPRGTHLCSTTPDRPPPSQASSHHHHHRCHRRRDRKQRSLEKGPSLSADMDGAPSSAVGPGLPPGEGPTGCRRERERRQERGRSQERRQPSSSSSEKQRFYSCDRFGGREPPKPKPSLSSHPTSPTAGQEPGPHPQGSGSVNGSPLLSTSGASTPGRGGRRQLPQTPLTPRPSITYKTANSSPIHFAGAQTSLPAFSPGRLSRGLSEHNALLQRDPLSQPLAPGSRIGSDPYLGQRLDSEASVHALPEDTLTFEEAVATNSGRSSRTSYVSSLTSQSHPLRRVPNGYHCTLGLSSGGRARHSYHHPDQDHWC
T1 sequence (P54284 whole entry partner): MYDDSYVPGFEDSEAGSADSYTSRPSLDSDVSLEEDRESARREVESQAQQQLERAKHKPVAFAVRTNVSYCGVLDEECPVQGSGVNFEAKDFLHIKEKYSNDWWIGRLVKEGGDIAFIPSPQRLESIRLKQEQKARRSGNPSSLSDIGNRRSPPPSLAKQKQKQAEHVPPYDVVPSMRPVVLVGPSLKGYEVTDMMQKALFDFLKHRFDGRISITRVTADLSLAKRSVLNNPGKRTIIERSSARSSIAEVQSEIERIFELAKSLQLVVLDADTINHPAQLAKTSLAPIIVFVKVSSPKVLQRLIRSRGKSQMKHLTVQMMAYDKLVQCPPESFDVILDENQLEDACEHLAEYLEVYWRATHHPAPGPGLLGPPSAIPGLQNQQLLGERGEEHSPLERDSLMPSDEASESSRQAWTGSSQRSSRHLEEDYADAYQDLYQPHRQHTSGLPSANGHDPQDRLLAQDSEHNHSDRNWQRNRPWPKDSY
T1 sequence (P54289 25-946 partner limits assumed): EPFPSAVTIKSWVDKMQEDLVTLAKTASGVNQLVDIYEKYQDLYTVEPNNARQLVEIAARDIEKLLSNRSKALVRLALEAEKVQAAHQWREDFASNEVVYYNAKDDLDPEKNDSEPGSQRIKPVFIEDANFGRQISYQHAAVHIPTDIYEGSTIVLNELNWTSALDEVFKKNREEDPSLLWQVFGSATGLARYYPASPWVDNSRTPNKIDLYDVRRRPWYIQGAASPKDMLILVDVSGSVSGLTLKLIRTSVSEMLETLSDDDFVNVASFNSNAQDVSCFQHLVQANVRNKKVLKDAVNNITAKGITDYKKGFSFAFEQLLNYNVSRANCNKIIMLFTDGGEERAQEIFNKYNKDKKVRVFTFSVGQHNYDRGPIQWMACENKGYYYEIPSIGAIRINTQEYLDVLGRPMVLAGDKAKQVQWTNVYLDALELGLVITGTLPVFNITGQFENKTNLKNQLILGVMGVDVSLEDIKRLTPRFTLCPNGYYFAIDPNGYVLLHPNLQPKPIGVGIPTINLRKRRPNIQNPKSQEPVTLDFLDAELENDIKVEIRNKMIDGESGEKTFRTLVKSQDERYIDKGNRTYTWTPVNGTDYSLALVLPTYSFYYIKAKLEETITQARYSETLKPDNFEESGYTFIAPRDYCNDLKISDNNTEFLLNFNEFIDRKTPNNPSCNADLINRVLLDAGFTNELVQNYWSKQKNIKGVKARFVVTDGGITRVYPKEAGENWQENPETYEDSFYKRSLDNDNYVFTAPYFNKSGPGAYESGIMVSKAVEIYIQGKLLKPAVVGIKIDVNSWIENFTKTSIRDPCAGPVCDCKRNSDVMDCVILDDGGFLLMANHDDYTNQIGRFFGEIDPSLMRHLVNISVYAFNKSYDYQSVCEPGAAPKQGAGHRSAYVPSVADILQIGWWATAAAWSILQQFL
T1 sequence (P54289 947-1103 partner limits assumed): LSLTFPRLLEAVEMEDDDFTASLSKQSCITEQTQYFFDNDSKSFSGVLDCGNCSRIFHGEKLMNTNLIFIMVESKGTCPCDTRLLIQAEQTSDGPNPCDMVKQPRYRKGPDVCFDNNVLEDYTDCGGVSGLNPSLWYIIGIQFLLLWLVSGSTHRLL

Turning to `CN(c1ccc(F)cc1)c1nc(CN(C(=O)C(C)(C)C)c2ccc(F)cc2)cs1` [Compound 79, N-(4-Fluorophenyl)-N-{2-[(4-fluorophenyl)-methyl-amino]-thiazol-4-ylmethyl}-2,2-dimethyl-propionamide], the half-inhibitory concentration (IC50) was determined as 100 nM under setting [1] and 300 nM under setting [2]. For `CCN(c1cccc(CN(C(=O)C(C)(C)C)c2ccc(F)cc2)c1)C1CC1` [Compound 6, N-(3-(Cyclopropyl(ethyl)amino)-benzyl)-N-(4-fluorophenyl)-2,2-dimethyl-propionamide hydrochloride], the half-inhibitory concentration (IC50) under setting [1] was determined as 1500 nM and the concentration for half-maximal inhibition (IC50) under setting [2] amounted to 6200 nM. As to `O=C(C1CCCCC1)N(Cc1csc(N2CCOCC2)n1)c1ccc(F)cc1` [Compound 108, Cyclohexanecarboxylic acid (4-fluorophenyl)-(2-morpholin-4-yl-thiazol-4-ylmethyl)-amide], the concentration for half-maximal inhibition (IC50) by setting is: under setting [1], 3900 nM; under setting [2], 14100 nM. Regarding `CCN(CC)c1ccc(CN(C(=O)C(C)(C)n2cc(Cc3ccccc3)nn2)c2ccc(F)cc2)cn1` [Compound 63, 2-(4-Benzyl-[1,2,3]triazol-1-yl)-N-(6-diethylamino-pyridin-3-ylmethyl)-N-(4-fluorophenyl)-isobutyramide], the 50% inhibitory concentration (IC50) by setting is: under setting [1], 700 nM; under setting [2], 2700 nM. As to `CCN(c1ccc(CN(C(=O)CCC(C)C)c2ccc(F)cc2)cn1)C1CC1` [Compound 13, 4-methyl-pentanoic acid [6-(Cyclopropyl(ethyl)amino)-pyridin-3-ylmethyl]-(4-fluorophenyl)-amide hydrochloride], under setting [1], the IC50 was 1800 nM.

`CC(C)(C)C(=O)N(Cc1ccc(N2CC[C@H](Oc3ccccn3)C2)nc1)c1ccc(F)cc1` (stereo in doubt) [Compound 50, N-(4-Fluorophenyl)-2,2-dimethyl-N-{6-[3-(pyridin-2-yloxy)-pyrrolidin-1-yl]-pyridin-3-ylmethyl}-propionamide]: the half-maximal inhibitory concentration (IC50) was found to be 800 nM under setting [1] and 3700 nM under setting [2].

In the case of `CC(=O)N1CCN(c2ccc(CN(C(=O)C(C)(C)C)c3ccc(F)cc3)cn2)CC1` [Compound 44, N-[6-(4-Acetyl-piperazin-1-yl)-pyridin-3-ylmethyl]-N-(4-fluorophenyl)-2,2-dimethyl-propionamide], the IC50 reads like this: under setting [1], 7500 nM; under setting [2], 18400 nM. Consider `CC(C)(C)Nc1ccc(CN(C(=O)C(C)(C)C)c2ccc(F)cc2)cn1` [Compound 67, N-(6-tert-Butylamino-pyridin-3-ylmethyl)-N-(4-fluorophenyl)-2,2-dimethyl-propionamide], for which the IC50 under setting [1] is 3700 nM and the half-maximal inhibitory concentration (IC50) under setting [2] is 9300 nM. For `CCN(c1ccc(CN(C(=O)C2Cc3ccccc3CN2C)c2ccc(F)cc2)cn1)C1CC1` (centres unmarked) [Compound 15, 2-methyl-1,2,3,4-tetrahydro-isoquinoline-3-carboxylic acid [6-(Cyclopropyl(ethyl)amino)-pyridin-3-ylmethyl]-(4-fluorophenyl)-amide dihydrochloride], the IC50 runs as follows: under setting [1], 400 nM; under setting [2], 2100 nM.

For `CCN(CC)c1ccc(CN(C(=O)C(C)(C)C)c2ccc(F)cc2)cc1` [Compound 5, N-(4-Diethylaminobenzyl)-N-(4-fluorophenyl)-2,2-dimethyl-propionamide hydrochloride], the IC50 came out at 1100 nM under setting [1] and 2900 nM under setting [2]. As for `CCN(CC)c1ccc(N(Cc2cccc(N(CC)C3CC3)c2)C(=O)C(C)(C)C)cc1` [Compound 97, N-[3-(Cyclopropyl(ethyl)amino)-benzyl]-N-(4-diethylamino-phenyl)-2,2-dimethyl-propionamide], the half-inhibitory concentration (IC50) reads like this: under setting [1], 400 nM; under setting [2], 1100 nM.

For the molecule `CN(c1ccc(CN(C(=O)C(C)(C)C)c2ccc(F)cc2)cn1)C1CC1` [Compound 74, N-[6-(Cyclopropyl-methyl-amino)-pyridin-3-ylmethyl]-N-(4-fluorophenyl)-2,2-dimethyl-propionamide], the IC50 under setting [1] is 2800 nM and the IC50 under setting [2] amounted to 12800 nM.

Broadly, the IC50 is the concentration that inhibits the measured activity by half.
